These results are taken from PubChem BioAssay AID1745844 (Carcinogenic Potency Database (CPDB), 2022).

This data set deals with rodent lifetime carcinogenesis bioassay, tumor incidence TD50. The experiment in a line: chronic cancer bioassays in animals – CPDB, compiled studies (AID 1745844).

Each structure is given as a SMILES string. Calls of active or inactive are those of the source. The rule behind the calls is not given here.

As to `Nc1ccc2nc3ccccn3c2n1`, the TD50 reads like this: (mouse, strain CDF1, females, in feed, site: blood vessels, lesion: hemangioendothelial sarcoma, dosed 82 weeks, study length 82 weeks) 43 mg/kg/day; (mouse, strain CDF1, females, in feed, site: blood vessels, lesion: several types, types named in the paper, dosed 82 weeks, study length 82 weeks) 39.9 mg/kg/day; (mouse, strain CDF1, females, in feed, site: liver, lesion: hepatocellular adenoma, dosed 82 weeks, study length 82 weeks) 170 mg/kg/day; (mouse, strain CDF1, females, in feed, site: liver, lesion: hepatocellular carcinoma, dosed 82 weeks, study length 82 weeks) 20 mg/kg/day; (mouse, strain CDF1, females, in feed, site: liver, lesion: several types, types named in the paper, dosed 82 weeks, study length 82 weeks) 12 mg/kg/day; (mouse, strain CDF1, females, in feed, site: lung, lesion: adenoma, dosed 82 weeks, study length 82 weeks) 1090 mg/kg/day. The TD50 by setting is: (mouse, strain CDF1, males, in feed, site: blood vessels, lesion: hemangioendothelial sarcoma, dosed 84 weeks, study length 84 weeks) 27.3 mg/kg/day; (mouse, strain CDF1, males, in feed, site: blood vessels, lesion: several types, types named in the paper, dosed 84 weeks, study length 84 weeks) 23.9 mg/kg/day; (mouse, strain CDF1, males, in feed, site: liver, lesion: hepatocellular adenoma, dosed 84 weeks, study length 84 weeks) 201 mg/kg/day; (mouse, strain CDF1, males, in feed, site: liver, lesion: hepatocellular carcinoma, dosed 84 weeks, study length 84 weeks) 255 mg/kg/day; (mouse, strain CDF1, males, in feed, site: liver, lesion: several types, types named in the paper, dosed 84 weeks, study length 84 weeks) 93.2 mg/kg/day; (mouse, strain CDF1, males, in feed, site: lung, lesion: adenoma, dosed 84 weeks, study length 84 weeks) 483 mg/kg/day. In addition, the TD50 is, setting by setting: (rat, strain F344/DuCrj, females, in feed, site: Zymbal's gland, lesion: squamous-cell carcinoma, dosed 104 weeks, study length 104 weeks) 94 mg/kg/day; (rat, strain F344/DuCrj, females, in feed, site: clitoral gland, lesion: one or several types, types not named, dosed 104 weeks, study length 104 weeks) 56.4 mg/kg/day; (rat, strain F344/DuCrj, females, in feed, site: colon, lesion: adenocarcinoma, dosed 104 weeks, study length 104 weeks) 351 mg/kg/day; (rat, strain F344/DuCrj, females, in feed, site: colon, lesion: adenoma, dosed 104 weeks, study length 104 weeks) 111 mg/kg/day; (rat, strain F344/DuCrj, females, in feed, site: colon, lesion: several types, types named in the paper, dosed 104 weeks, study length 104 weeks) 81.1 mg/kg/day; (rat, strain F344/DuCrj, females, in feed, site: liver, lesion: several types, types named in the paper, dosed 104 weeks, study length 104 weeks) 351 mg/kg/day. The TD50 was 135 mg/kg/day (rat, strain F344/DuCrj, females, in feed, site: small intestine, lesion: adenocarcinoma, dosed 104 weeks, study length 104 weeks); 171 mg/kg/day (rat, strain F344/DuCrj, females, in feed, site: small intestine, lesion: adenoma, dosed 104 weeks, study length 104 weeks); 711 mg/kg/day (rat, strain F344/DuCrj, females, in feed, site: small intestine, lesion: mucinous carcinoma, dosed 104 weeks, study length 104 weeks); 81.1 mg/kg/day (rat, strain F344/DuCrj, females, in feed, site: small intestine, lesion: several types, types named in the paper, dosed 104 weeks, study length 104 weeks); 569 mg/kg/day (rat, strain F344/DuCrj, males, in feed, site: Zymbal's gland, lesion: squamous-cell carcinoma, dosed 104 weeks, study length 104 weeks); 281 mg/kg/day (rat, strain F344/DuCrj, males, in feed, site: brain, lesion: astrocytoma, dosed 104 weeks, study length 104 weeks). For the same compound, the TD50 by setting is: (rat, strain F344/DuCrj, males, in feed, site: colon, lesion: adenocarcinoma, dosed 104 weeks, study length 104 weeks) 185 mg/kg/day; (rat, strain F344/DuCrj, males, in feed, site: colon, lesion: adenoma, dosed 104 weeks, study length 104 weeks) 185 mg/kg/day; (rat, strain F344/DuCrj, males, in feed, site: colon, lesion: several types, types named in the paper, dosed 104 weeks, study length 104 weeks) 88.9 mg/kg/day; (rat, strain F344/DuCrj, males, in feed, site: liver, lesion: several types, types named in the paper, dosed 104 weeks, study length 104 weeks) 52.1 mg/kg/day; (rat, strain F344/DuCrj, males, in feed, site: small intestine, lesion: adenocarcinoma, dosed 104 weeks, study length 104 weeks) 45.1 mg/kg/day; (rat, strain F344/DuCrj, males, in feed, site: small intestine, lesion: adenoma, dosed 104 weeks, study length 104 weeks) 137 mg/kg/day. The TD50 (rat, strain F344/DuCrj, males, in feed, site: small intestine, lesion: mucinous carcinoma, dosed 104 weeks, study length 104 weeks) was 281 mg/kg/day and the TD50 (rat, strain F344/DuCrj, males, in feed, site: small intestine, lesion: several types, types named in the paper, dosed 104 weeks, study length 104 weeks) is 33.8 mg/kg/day.

As for `O=C1C2(Cl)C3(Cl)C4(Cl)C(Cl)(Cl)C5(Cl)C3(Cl)C1(Cl)C5(Cl)C24Cl` (stereo not given), the TD50 was 1.57 mg/kg/day (mouse, strain B6C3F1, females, in feed, site: any site (literature study), lesion: several types, types named in the paper, dosed 80 weeks, study length 90 weeks); 1.62 mg/kg/day (mouse, strain B6C3F1, females, in feed, site: liver, lesion: hepatocellular adenoma + hepatocellular carcinoma + neoplastic nodule, dosed 80 weeks, study length 90 weeks); 1.62 mg/kg/day (mouse, strain B6C3F1, females, in feed, site: liver, lesion: hepatocellular carcinoma, dosed 80 weeks, study length 90 weeks); 0.705 mg/kg/day (mouse, strain B6C3F1, males, in feed, site: any site (literature study), lesion: several types, types named in the paper, dosed 80 weeks, study length 89 weeks); 0.705 mg/kg/day (mouse, strain B6C3F1, males, in feed, site: liver, lesion: hepatocellular adenoma + hepatocellular carcinoma + neoplastic nodule, dosed 80 weeks, study length 89 weeks); 0.705 mg/kg/day (mouse, strain B6C3F1, males, in feed, site: liver, lesion: hepatocellular carcinoma, dosed 80 weeks, study length 89 weeks). Also, the TD50 reads like this: (mouse, strain B6C3F1, males, in feed, site: lung, lesion: alveolar/bronchiolar adenoma + alveolar/bronchiolar carcinoma, dosed 80 weeks, study length 89 weeks) 29.3 mg/kg/day; (rat, strain Osborne-Mendel, females, in feed, site: any site (literature study), lesion: several types, types named in the paper, dosed 80 weeks, study length 109 weeks) 1.83 mg/kg/day; (rat, strain Osborne-Mendel, females, in feed, site: liver, lesion: hepatocellular adenoma + hepatocellular carcinoma + neoplastic nodule, dosed 80 weeks, study length 109 weeks) 2.96 mg/kg/day; (rat, strain Osborne-Mendel, males, in feed, site: any site (literature study), lesion: several types, types named in the paper, dosed 80 weeks, study length 109 weeks) 1.42 mg/kg/day (inactive); (rat, strain Osborne-Mendel, males, in feed, site: liver, lesion: hepatocellular adenoma + hepatocellular carcinoma + neoplastic nodule, dosed 80 weeks, study length 109 weeks) 2.49 mg/kg/day; (rat, strain Sprague-Dawley, males, in feed, site: liver, lesion: neoplastic nodule, dosed 91 weeks, study length 91 weeks) 0.199 mg/kg/day.

Turning to `CCCCN(N)CCCC`, the TD50 by setting is: (mouse, strain Swiss albino, females, in drinking water, site: forestomach, lesion: several types, types named in the paper, dosed 109 weeks, study length 109 weeks) 71.5 mg/kg/day; (mouse, strain Swiss albino, females, in drinking water, site: forestomach, lesion: squamous-cell carcinoma, dosed 109 weeks, study length 109 weeks) 152 mg/kg/day; (mouse, strain Swiss albino, females, in drinking water, site: forestomach, lesion: squamous-cell papilloma, dosed 109 weeks, study length 109 weeks) 95.9 mg/kg/day; (mouse, strain Swiss albino, females, in drinking water, site: lung, lesion: adenocarcinoma, dosed 109 weeks, study length 109 weeks) 133 mg/kg/day; (mouse, strain Swiss albino, females, in drinking water, site: lung, lesion: adenoma, dosed 109 weeks, study length 109 weeks) 51.5 mg/kg/day; (mouse, strain Swiss albino, females, in drinking water, site: lung, lesion: several types, types named in the paper, dosed 109 weeks, study length 109 weeks) 55.5 mg/kg/day. Also, the TD50 (mouse, strain Swiss albino, males, in drinking water, site: forestomach, lesion: several types, types named in the paper, dosed 109 weeks, study length 109 weeks) was 84.2 mg/kg/day; the TD50 (mouse, strain Swiss albino, males, in drinking water, site: forestomach, lesion: squamous-cell carcinoma, dosed 109 weeks, study length 109 weeks) is 317 mg/kg/day; the TD50 (mouse, strain Swiss albino, males, in drinking water, site: forestomach, lesion: squamous-cell papilloma, dosed 109 weeks, study length 109 weeks) stood at 109 mg/kg/day; the TD50 (mouse, strain Swiss albino, males, in drinking water, site: liver, lesion: hepatoma, benign, dosed 109 weeks, study length 109 weeks) amounted to 189 mg/kg/day; the TD50 (mouse, strain Swiss albino, males, in drinking water, site: liver, lesion: several types, types named in the paper, dosed 109 weeks, study length 109 weeks) is 105 mg/kg/day; the TD50 (mouse, strain Swiss albino, males, in drinking water, site: lung, lesion: adenocarcinoma, dosed 109 weeks, study length 109 weeks) was determined as 82.3 mg/kg/day. Also, the TD50 is, setting by setting: (mouse, strain Swiss albino, males, in drinking water, site: lung, lesion: adenoma, dosed 109 weeks, study length 109 weeks) 44.9 mg/kg/day; (mouse, strain Swiss albino, males, in drinking water, site: lung, lesion: several types, types named in the paper, dosed 109 weeks, study length 109 weeks) 38.1 mg/kg/day. The carcinogen call (mouse, strain Swiss albino, females, in drinking water, site: liver, lesion: angioma, dosed 109 weeks, study length 109 weeks) is “negative (inactive)”.

In the case of `CC(=O)[O-].CC(=O)[O-].[OH-].[OH-].[OH-].[OH-].[Pb+2].[Pb+2].[Pb+2]`, the carcinogen call reads like this: (mouse, strain Swiss, females, in feed, site: kidney, lesion: adenoma, dosed 104 weeks, study length 104 weeks) “positive”; (rat, strain Sprague-Dawley, males, in feed, site: liver, lesion: one or several types, types not named, dosed 79 weeks, study length 79 weeks) “negative (inactive)”. The TD50 is 14800 mg/kg/day (mouse, strain Swiss, females, in feed, site: kidney, lesion: carcinoma, dosed 104 weeks, study length 104 weeks); 986 mg/kg/day (mouse, strain Swiss, males, in feed, site: kidney, lesion: adenoma, dosed 86 weeks, study length 104 weeks); 472 mg/kg/day (mouse, strain Swiss, males, in feed, site: kidney, lesion: carcinoma, dosed 86 weeks, study length 104 weeks); 266 mg/kg/day (rat, strain Sprague-Dawley, males, in feed, site: kidney, lesion: several types, types named in the paper, dosed 79 weeks, study length 79 weeks); 339 mg/kg/day (rat, strain Wistar, females, in feed, site: kidney, lesion: several types, types named in the paper, dosed 104 weeks, study length 104 weeks); 107 mg/kg/day (rat, strain Wistar, females, in feed, site: kidney, lesion: several types, types named in the paper, dosed 126 weeks, study length 126 weeks). The TD50 reads like this: (rat, strain Wistar, males, in feed, site: kidney, lesion: several types, types named in the paper, dosed 104 weeks, study length 104 weeks) 443 mg/kg/day; (rat, strain Wistar, males, in feed, site: kidney, lesion: several types, types named in the paper, dosed 126 weeks, study length 126 weeks) 107 mg/kg/day.

`S=C=NCCCc1ccccc1`: the TD50 (rat, strain Fischer 344, males, in feed, site: testis, lesion: interstitial-cell tumor, dosed 89 weeks, study length 89 weeks) is 4.34 mg/kg/day.
